“And” between values parts separate entries of the source, which are not always exact repeats. Equal entries are not always repeated. Where two headings read alike, the source gives them in different places.
Tests used:
[1] = system: human bronchial epithelial cells
[2] = system: human nasal epithelial cells
SARS-CoV-2 (WA1) = assay: microbe, parasite or virus in culture; assay type: cell-based; settings: for EC90: Severe acute respiratory syndrome coronavirus 2, HAE
in vitro = settings: human
human hepatocytes = assay: Triphosphate levels in human hepatocytes; assay type: in vitro ADME; settings: for Mean Intracellular Compound 1-6 Concentration: human hepatocytes, 10 μM Compound 1A
[3] = Lung, kidney and liver tissue levels in non-human primates after oral Compound 2A; assay type: in vivo, cynomolgus monkeys; settings: for half-life: after oral Compound 2A 30 mg/kg BID for 3 days; for trough (12 h) tissue level: 12 hours after the last dose of Compound 2A
Method: (This corresponds to 55 ng/g (lung), 57 ng/g (kidney), and 43 ng/g (liver)). […] Plasma tough level of Compound 1-7, the surrogate for Compound 1-6 in plasma, was 39 ng/mL.

monkey hepatocytes = assay: Triphosphate levels in monkey hepatocytes; assay type: in vitro ADME; settings: 10 μM Compound 1A
[4] = system: human nasal epithelial cells; assay: Triphosphate levels in human nasal epithelial cells after 8 h exposure and washout
[5] = Prediction of human tissue levels of triphosphate from monkey tissue levels
Method: Based on the ratio (7.0) of human to monkey concentrations of triphosphate Compound 1-6 as assessed by its in vitro formation in primary hepatocytes, the predicted human tissue level was determined.

[6] = system: human bronchial epithelial cells; assay: Triphosphate levels in human bronchial epithelial cells after 8 h exposure and washout; settings: for Mean Intracellular Compound 1-6 Concentration: bronchial cells, 10 μM Compound 1A for 8 h

Nc1ccn([C@@H]2O[C@@](CO)(CCl)[C@@H](O)[C@H]2F)c(=O)n1 [ALS-8112]
ratio of triphosphate from Compound 1A vs. the named drug [1]: 5
ratio of triphosphate from Compound 1A vs. the named drug [2]: 3

O=c1nc(NO)ccn1[C@@H]1O[C@H](CO)[C@@H](O)[C@H]1O [N^4-hydroxycytidine, reference compound]
Selectivity Index (SARS-CoV-2 (WA1)): >5.1
EC90 (SARS-CoV-2 (WA1); read-out: EC90 of the single replicates): 4.7 µM
EC90 (SARS-CoV-2 (WA1); read-out: Virus Yield Reduction Assay EC90): 3.9 µM
CC50 (in vitro): > 19 µM

C[C@@]1(F)[C@H](O)[C@@H](COP(=O)(O)OP(=O)(O)OP(=O)(O)O)O[C@H]1n1cnc2c(=O)[nH]c(N)nc21 [Compound 1-6]
ratio of human to monkey hepatocyte triphosphate concentrations (human hepatocytes; assessed by AUC0-24 values): 7 fold and 7.0 fold
Mean Intracellular Compound 1-6 Concentration (human hepatocytes; incubation 2 h): 14 µM
Mean Intracellular Compound 1-6 Concentration (human hepatocytes; incubation 4 h): 22 µM
Mean Intracellular Compound 1-6 Concentration (human hepatocytes; incubation 8 h): 26 µM
Mean Intracellular Compound 1-6 Concentration (human hepatocytes; incubation 24 h): 17 µM
half-life ([3]; monkey kidney tissue): 8.0 h
trough (12 h) tissue level ([3]; monkey kidney): 57 ng/g
Mean Intracellular Compound 1-6 Concentration ([3]; monkey kidney, 12 h post last dose of Compound 2A): 0.13 µM
Mean Intracellular Compound 1-6 Concentration ([3]; monkey kidney, 24 h post last dose of Compound 2A): 0.032 µM
Mean Intracellular Compound 1-6 Concentration ([3]; monkey kidney, 48 h post last dose of Compound 2A): 0.004 µM
half-life ([3]; monkey liver tissue): 4.3 h
trough (12 h) tissue level ([3]; monkey liver): 43 ng/g
Mean Intracellular Compound 1-6 Concentration ([3]; monkey liver, 12 h post last dose of Compound 2A): 0.09 µM and 0.089 µM
Mean Intracellular Compound 1-6 Concentration ([3]; monkey liver, 24 h post last dose of Compound 2A): 0.021 µM
Mean Intracellular Compound 1-6 Concentration ([3]; monkey liver, 48 h post last dose of Compound 2A): Not Detected
half-life ([3]; monkey lung tissue): 9.4 h
trough (12 h) tissue level ([3]; monkey lung): 55 ng/g
Mean Intracellular Compound 1-6 Concentration ([3]; monkey lung, 12 h post last dose of Compound 2A): 0.14 µM
Mean Intracellular Compound 1-6 Concentration ([3]; monkey lung, 24 h post last dose of Compound 2A): 0.037 µM
Mean Intracellular Compound 1-6 Concentration ([3]; monkey lung, 48 h post last dose of Compound 2A): 0.009 µM
triphosphate concentration in the lung compared to the liver ([3]; monkey, 12-hour steady-state trough, oral Compound 2A 30 mg/kg BID): 1.6 fold
Mean Intracellular Compound 1-6 Concentration (monkey hepatocytes; incubation 2 h): 2.1 µM
Mean Intracellular Compound 1-6 Concentration (monkey hepatocytes; incubation 4 h): 3.1 µM
Mean Intracellular Compound 1-6 Concentration (monkey hepatocytes; incubation 8 h): 2.9 µM
Mean Intracellular Compound 1-6 Concentration (monkey hepatocytes; incubation 24 h): 1.7 µM
half-life ([4]; intracellular triphosphate in nasal cells after exposure to 10 μM Compound 1A): 38 h
half-life ([4]; intracellular triphosphate in nasal epithelial cells after Compound 1A): over 1.5 days
half-life ([4]; intracellular triphosphate in nasal epithelial cells after Compound 1A, listed as active triphosphate species): greater than 1.5 days
Mean Intracellular Compound 1-6 Concentration ([4]; nasal cells, 10 μM Compound 1A for 8 h, 24 h after washout): 170 µM
Predicted Intracellular Triphosphate 1-6 Conc. at 12 hours Post-dose [5]: 0.62 µM and 0.91 µM and 0.98 µM
predicted human lung intracellular level at trough (12 h) relative to in vitro EC90 ([5]; 1100 mg LD + 550 mg BID, EC90 against SARS-CoV-2 in HAE cell cultures): above the in vitro EC90
Mean Intracellular Compound 1-6 Concentration ([6]; 15 h after washout): 560 µM
Mean Intracellular Compound 1-6 Concentration ([6]; 48 h after washout): 290 µM
half-life ([6]; intracellular triphosphate in bronchial cells after exposure to 10 μM Compound 1A): 39 h
half-life ([6]; intracellular triphosphate in bronchial epithelial cells after Compound 1A): over 1.5 days
half-life ([6]; intracellular triphosphate in bronchial epithelial cells after Compound 1A, listed as active triphosphate species): greater than 1.5 days

Source: patent US10874687B1 (Atea Pharmaceuticals, Inc., priority 2020, dated 2020)
